Test results from ChEMBL document CHEMBL6074703, “BODIPYS Based Fluorescent Markers To Monitor Autophagic Lysosomes and Lipid Droplets in TNBC” (ACS Med Chem Lett, 2024).
Activity calls are given as the source filed them. No cut-off for these calls is given here.

Legend:
MDA-MB-231 [1] = assay: Antiproliferative activity against human MDA-MB-231 cells assessed as reduction in cell viability measured after 48 hrs under dark condition by MTT assay; format: functional, cell-based; details: MDA-MB-231, 48 h
MDA-MB-231 [2] = assay: Antiproliferative activity against human MDA-MB-231 cells assessed as reduction in cell viability measured after 48 hrs under light condition by MTT assay; format: functional, cell-based; details: MDA-MB-231, 48 h
[3] = Drug uptake in human MDA-MB-231 cells at 20 uM measured after 24 hrs by confocal microscopy based analysis; format: ADME, cell-based; details: mda-mb-231, 24 h
[4] = Drug uptake in human MDA-MB-231 cells at 20 uM measured after 6 hrs by confocal microscopy based analysis; format: ADME, cell-based; details: mda-mb-231, 6 h
MDA-MB-231 [5] = assay: Induction of autophagy in human MDA-MB-231 cells assessed as increase in calcium ion release in cytoplasm by measuring blue fluorescence at 10 uM incubated for 3 hrs followed by dark incubation by Fura-2 dye based confocal microscopy based analysis; format: functional, cell-based
[6] = (§1) Selectivity ratio of IC50 for human MDA-MB-231 cells assessed as reduction in cell viability measured after 48 hrs under dark condition to IC50 human MDA-MB-231 cells assessed as reduction in cell viability measured after 48 hrs under light condition; format: functional
MDA-MB-231 [7] = assay: Antiproliferative activity against human MDA-MB-231 cells assessed as reduction in cell viability measured after 48 hrs under dark condition in presence of chloroquine by MTT assay; format: functional, cell-based; details: MDA-MB-231, 48 h
MDA-MB-231 [8] = assay: Antiproliferative activity against human MDA-MB-231 cells assessed as reduction in cell viability measured after 48 hrs under light condition in presence of chloroquine by MTT assay; format: functional, cell-based; details: MDA-MB-231, 48 h
[9] = as §1, with “condition in presence of chloroquine” for “condition”; format: functional
MDA-MB-231 [10] = assay: Induction of ROS response in human MDA-MB-231 cells by measuring green fluorescence at 10 uM incubated for 3 hrs under light 24J/cm2 irradiation by H2DCFDA staining based confocal microscopy analysis; format: functional, cell-based
MDA-MB-231 [11] = assay: Induction of ROS response in human MDA-MB-231 cells by measuring green fluorescence at 10 uM incubated for 3 hrs dark condition by H2DCFDA staining based confocal microscopy analysis; format: functional, cell-based
[12] = Drug localization in lysosome of human MDA-MB-231 cells assessed as colocalization at 20 uM incubated for 3 hrs by lyso-tracker blue staining based confocal microscopy analysis; format: ADME, subcellular; details: mda-mb-231, 3 h
[13] = Drug localization in lysosome of human MDA-MB-231 cells assessed as colocalization at 20 uM incubated for 3 hrs by MDH staining based confocal microscopy analysis; format: ADME, subcellular; details: mda-mb-231, 3 h
MDA-MB-231 [14] = assay: Induction of autophagy in human MDA-MB-231 cells assessed as increase in green fluorescence at 20 uM under light irradiation by confocal microscopy based analysis; format: functional, cell-based

Row | Structure (SMILES) | IC50 (MDA-MB-231 [1]) [µM] | IC50 (MDA-MB-231 [2]) [µM] | Drug uptake [3] | Drug uptake [4] | Activity (MDA-MB-231 [5]) | Ratio IC50 [6] | IC50 (MDA-MB-231 [7]) [µM] | IC50 (MDA-MB-231 [8]) [µM] | Ratio IC50 [9] | Activity (MDA-MB-231 [10]) | Activity (MDA-MB-231 [11]) | Drug uptake [12] | Drug uptake [13] | Activity (MDA-MB-231 [14])
1 | CO[C@H]1C[C@@H]2CC[C@@H](C)[C@@](O)(O2)C(=O)C(=O)N2CCCC[C@H]2C(=O)O[C@H]([C@H](C)C[C@@H]2CC[C@@H](O)[C@H](OC)C2)CC(=O)[C@H](C)/C=C(\C)[C@@H](O)[C@@H](OC)C(=O)[C@H](C)C[C@H](C)/C=C/C=C/C=C/1C [SIROLIMUS] | 11.2 | 14.2 | – | – | – | – | – | – | – | – | – | – | – | –
2 | CCCCn1c2ccc(/C=C/c3ccc(N(c4ccccc4)c4ccccc4)cc3)cc2c2cc(C3=C4C=CC=[N+]4[B-](F)(F)n4cccc43)ccc21 | 13.2 | 0.95 | Active | Active | Active | 13.84 | 22.6 | 1.17 | >19.33 | Active | Active | – | – | –
3 | CCCCn1c2ccccc2c2cc(/C=C/c3ccc4c(c3)c3cc(C5=C6C=CC=[N+]6[B-](F)(F)n6cccc65)ccc3n4CCCC)ccc21 | > 50 | 17.1 | Active | Active | Active | >2.9 | > 50 | 5.57 | >8.97 | Active | Active | Active | Active | Active
4 | CCN(CC)CCCC(C)Nc1ccnc2cc(Cl)ccc12 (centres undefined) [CHLOROQUINE] | > 50 | > 50 | – | – | – | – | – | – | – | – | – | – | – | –
